Tests used:
Hsp90 = Hsp90 (Homo sapiens, UniProt P07900); settings: cited from earlier work
[1] = biological target: terminal deoxynucleotidyl transferase (Homo sapiens, UniProt P04053); settings: cited from earlier work
Reverse transcriptase = settings: cited from earlier work
MCF-7 = test: monolayer proliferation assay, modified propidium iodide assay; format: cell-based, human; settings: MCF-7 (breast), 4 days continuous exposure
Protocol: (§1) In vitro evaluation of compounds for anticancer activity in a panel of human tumour cell lines in a monolayer proliferation assay was carried out at the Oncotest Testing Facility, Institute for Experimental Oncology, Oncotest GmbH, Freiburg.
(§2) The Oncotest cell lines are established from human tumor xenografts as described by Roth et al., (1999). The origin of the donor xenografts was described by Fiebig et al., (1999). Other cell lines are either obtained from the NCI (DU145, MCF-7) or purchased from DSMZ, Braunschweig, Germany.
(§3) All cell lines, unless otherwise specified, were grown at 37° C. in a humidified atmosphere (95% air, 5% CO2) in a ‘ready-mix’ medium containing RPMI 1640 medium, 10% fetal calf serum, and 0.1 mg/mL gentamicin (PAA, Cölbe, Germany).
(§4) A modified propidium iodide assay was used to assess the effects of the test compound(s) on the growth of human tumour cell lines (Dengler et al., (1995)).
(§5) Briefly, cells were harvested from exponential phase cultures by trypsinization, counted and plated in 96 well flat-bottomed microtitre plates at a cell density dependent on the cell line (5-10.000 viable cells/well). After 24 h recovery to allow the cells to resume exponential growth, 0.010 mL of culture medium (6 control wells per plate) or culture medium containing the 11-O-desmethylmacbecin analogue were added to the wells. Each concentration was plated in triplicate. Compounds were applied in two concentrations (1 μg/mL and 10 μg/mL). Following 4 days of continuous exposure, cell culture medium with or without test compound was replaced by 0.2 mL of an aqueous propidium iodide (PI) solution (7 mg/L). To measure the proportion of living cells, cells were permeabilized by freezing the plates. After thawing the plates, fluorescence was measured using the Cytofluor 4000 microplate reader (excitation 530 nm, emission 620 nm), giving a direct relationship to the total number of viable cells. Growth inhibition was expressed as treated/control×100 (% T/C).
(§6) In vitro evaluation of the test compounds for anticancer activity in a panel of human tumour cell lines in a monolayer proliferation assay was carried out as described in the general methods using a modified propidium iodide assay.

LXF 1121L = test: as above; format: cell-based, human; settings: LXF 1121L (lung, large cell ca), 4 days continuous exposure
Protocol: as §1, §2, §3, §4, §5, §6

MEXF 394NL = test: as above; format: cell-based, human; settings: MEXF 394NL (melanoma), 4 days continuous exposure
Protocol: as §1, §2, §3, §4, §5, §6

DU145 = test: as above; format: cell-based, human; settings: DU145 (prostate, PTEN positive), 4 days continuous exposure
Protocol: as §1, §2, §3, §4, §5, §6

CXF HT29 = test: as above; format: cell-based, human; settings: CXF HT29 (colon), 4 days continuous exposure
Protocol: as §1, §2, §3, §4, §5, §6

CNXF 498NL = test: as above; format: cell-based, human; settings: CNXF 498NL (CNS), 4 days continuous exposure
Protocol: as §1, §2, §3, §4, §5, §6

Sequence of terminal deoxynucleotidyl transferase (P04053 whole entry, species assumed): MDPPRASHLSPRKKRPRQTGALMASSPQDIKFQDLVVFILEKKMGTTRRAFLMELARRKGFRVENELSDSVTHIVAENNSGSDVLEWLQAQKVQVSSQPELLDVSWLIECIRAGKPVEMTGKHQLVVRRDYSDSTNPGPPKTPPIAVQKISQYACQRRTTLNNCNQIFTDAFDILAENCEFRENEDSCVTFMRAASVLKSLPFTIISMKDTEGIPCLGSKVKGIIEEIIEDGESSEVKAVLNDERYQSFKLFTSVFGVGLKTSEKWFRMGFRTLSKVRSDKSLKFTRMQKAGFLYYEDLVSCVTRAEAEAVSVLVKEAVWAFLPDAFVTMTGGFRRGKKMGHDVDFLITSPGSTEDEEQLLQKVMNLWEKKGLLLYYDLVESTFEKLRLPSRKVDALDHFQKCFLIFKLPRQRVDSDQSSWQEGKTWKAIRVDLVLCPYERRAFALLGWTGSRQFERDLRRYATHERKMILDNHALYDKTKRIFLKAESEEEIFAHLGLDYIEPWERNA

Row | SMILES | binding affinity to Hsp90, greater than 17-AAG (Hsp90; relative to 17-AAG) | binding affinity to Hsp90, greater than geldanamycin (Hsp90; relative to geldanamycin) | inhibition of terminal deoxynucleotidyl transferase activity [1] | inhibition of reverse transcriptase activity (Reverse transcriptase) | Test/Control (%) at drug concentration (MCF-7; 1 μg/mL) | Test/Control (%) at drug concentration (MCF-7; 10 μg/mL) | Test/Control (%) at drug concentration (LXF 1121L; 1 μg/mL) | Test/Control (%) at drug concentration (LXF 1121L; 10 μg/mL) | Test/Control (%) at drug concentration (MEXF 394NL; 1 μg/mL) | Test/Control (%) at drug concentration (MEXF 394NL; 10 μg/mL) | Test/Control (%) at drug concentration (DU145; 1 μg/mL) | Test/Control (%) at drug concentration (DU145; 10 μg/mL) | Test/Control (%) at drug concentration (CXF HT29; 1 μg/mL) | Test/Control (%) at drug concentration (CXF HT29; 10 μg/mL) | Test/Control (%) at drug concentration (CNXF 498NL; 1 μg/mL) | Test/Control (%) at drug concentration (CNXF 498NL; 10 μg/mL)
1 | CO[C@H]1C[C@H](C)Cc2cc(O)cc(c2)NC(=O)/C=C/CC[C@H](OC)[C@@H](OC(N)=O)/C(C)=C/[C@H](C)[C@H]1O [KOSN1559] | 8 fold | 4 fold | – | – | – | – | – | – | – | – | – | – | – | – | – | –
2 | CO[C@H]1[C@@H](OC)C[C@H](C)[C@@H](OC)C2=CC(=O)C=C(NC(=O)/C(C)=C/C=C\[C@H](C)[C@@H](OC(N)=O)/C(C)=C/[C@@H]1C)C2=O [Macbecin, macbecin, reference compound] | – | – | not inhibited | not inhibited | 42% | 19% | 30% | 17% | 16% | 13% | 13% | 5% | 22% | 8% | 29% | 14%
3 | CO[C@H]1C[C@H](C)[C@@H](O)C2=CC(=O)C=C(NC(=O)/C(C)=C/C=C\[C@H](C)[C@@H](OC(N)=O)/C(C)=C/[C@H](C)[C@H]1O)C2=O [compound 14, 11-O-desmethyl-15-O-desmethylmacbecin] | – | – | – | – | 83.7% | 58.7% | 83.3% | 57.7% | 50.7% | 77% | 78.7% | 35% | 88.7% | 55% | 82.7% | 45.3%
4 | CO[C@H]1C[C@H](C)CC2=CC(=O)C=C(NC(=O)/C(C)=C/C=C\[C@H](C)[C@@H](OC(N)=O)/C(C)=C/[C@H](C)[C@H]1O)C2=O [compound 15, 11-O-desmethyl-15-desmethoxymacbecin] | – | – | – | – | 49.3% | 13.7% | 57.7% | 11.7% | 22% | 5% | 16.3% | 6% | 37.7% | 9% | 30% | 9%
5 | CO[C@H]1C[C@H](C)CC2=CC(=O)C=C(NC(=O)/C(C)=C/CC[C@H](C)[C@@H](OC(N)=O)/C(C)=C/[C@H](C)[C@H]1O)C2=O [compound 17, 4,5-dihydro-11-O-desmethyl-15-desmethoxymacbecin] | – | – | – | – | 35% | 5% | 55% | 17% | 38% | 4% | 18% | 5% | 52% | 6% | 35% | 8%
